Laboratory results as given in patent US7994190B2, “Modulators of glucocorticoid receptor, AP-1, and/or NF-κB activity and use thereof” (Bristol-Myers Squibb Company, priority 2006, dated 2011).

Key:
AP-1 = assay: Cellular Transrepressional Assay (AP-1 luciferase reporter in A549 cells); type: cell-based; conditions: A549 cell stably transfected with pAP-1-Luc, 10 ng/ml PMA, 7 hours; for AP-1 Max % inh (Cellular Transrepression Assay): maximum inhibition; for EC50: read-out: AP-1 EC50, nM (Cellular Transrepression Assay)
Experimental: Cellular Transrepressional Assay
To measure the ability of test molecules to inhibit AP-1 induced transcriptional activity, an A549 cell was utilized which was stably transfected with a plasmid containing 7×AP-1 DNA binding sites (pAP-1-Luc plasmid, Stratagene Co. La Jolla, Calif.) followed by the gene for luciferase. Cells were activated with 10 ng/ml of […] (PMA) plus or minus test molecules for 7 hours. After 7 hours a luciferase reagent was added to measure luciferase enzymatic activity in the cell. After a 10 minute incubation of luciferase reagent with cells, luminescence was measured in a TopCount luminescence counter. Repression of AP-1 activity was calculated as the percentage decrease in the signal induced by PMA alone. Test molecules were analyzed in the concentration range from 0.1 nM to 40 μM. EC50s were determined by using standard curve fitting methods such as Excel fit (Microsoft Co.).

[1] = target: T1, human glucocorticoid receptor (Homo sapiens, UniProt P04150); assay: Glucocorticoid Receptor Binding Assay (fluorescence polarization competitor kit); conditions: purified human recombinant full-length GR 2 nM, 1 nM Fluormone GS Red, 2 h room temperature
T1 construct: purified human recombinant full-length glucocorticoid receptor (2 nM); purchased Invitrogen Part #2893
T1 sequence (P04150 1-777): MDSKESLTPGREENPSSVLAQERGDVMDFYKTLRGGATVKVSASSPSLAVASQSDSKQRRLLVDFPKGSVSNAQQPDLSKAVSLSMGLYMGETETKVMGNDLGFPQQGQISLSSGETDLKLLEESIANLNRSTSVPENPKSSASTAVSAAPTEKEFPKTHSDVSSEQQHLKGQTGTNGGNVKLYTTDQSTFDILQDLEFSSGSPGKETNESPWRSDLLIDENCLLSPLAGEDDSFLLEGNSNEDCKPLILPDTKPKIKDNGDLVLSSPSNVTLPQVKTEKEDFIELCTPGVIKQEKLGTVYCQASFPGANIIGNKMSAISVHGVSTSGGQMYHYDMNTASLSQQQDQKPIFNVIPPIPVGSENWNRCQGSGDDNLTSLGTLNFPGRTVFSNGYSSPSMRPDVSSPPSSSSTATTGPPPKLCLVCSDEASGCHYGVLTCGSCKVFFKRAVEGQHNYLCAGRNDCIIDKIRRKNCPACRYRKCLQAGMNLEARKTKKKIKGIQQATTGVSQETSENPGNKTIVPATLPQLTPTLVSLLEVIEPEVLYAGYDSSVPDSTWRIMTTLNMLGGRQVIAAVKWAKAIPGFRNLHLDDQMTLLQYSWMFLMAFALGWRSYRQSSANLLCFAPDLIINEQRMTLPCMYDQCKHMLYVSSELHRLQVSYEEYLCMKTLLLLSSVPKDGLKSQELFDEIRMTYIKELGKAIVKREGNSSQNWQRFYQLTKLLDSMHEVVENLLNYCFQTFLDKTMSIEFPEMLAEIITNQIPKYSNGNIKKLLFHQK
Experimental: Glucocorticoid Receptor Binding Assay
In order to assess the affinity of test compounds for the human glucocorticoid receptor, a commercially available kit was used (Glucocorticoid Receptor Competitor Assay Kit, Invitrogen Part #2893). Briefly, purified human recombinant full-length glucocorticoid receptor (2 nM) was mixed with fluorescently labeled glucocorticoid (1 nM Fluormone GS Red) in the presence or absence of test compound. After two hour incubation at room temperature in the dark, the fluorescence polarization (FP) of the samples was measured. […] Test compounds were analyzed in the concentration range from 8.5E-05 μM to 5 μM.

| EC50 (AP-1) | Ki [1] | Structure (SMILES) | AP-1 Max % inh (Cellular Transrepression Assay) (AP-1) |
| --- | --- | --- | --- |
| 112 nM | – | CC(C)(C(=O)Nc1nncs1)C(c1ccccc1)c1ccn2c(-c3ccccc3)ncc2c1 (stereo not shown) [Example 1, 2,2-Dimethyl-3-phenyl-3-(3-phenylH-imidazo[1,5-a]pyridin-7-yl)-N-(1,3,4-thiadiazol-2-yl)propanamide] | 63.58% |
| – | 16.5 nM | CC(C)(CNC(=O)C(F)(F)F)C(c1ccccc1)c1ccn2c(-c3ccccc3)ncc2c1 (stereo not shown) [Example 2, N-(2,2-Dimethyl-3-phenyl-3-(3-phenylH-imidazo[1,5-a]pyridin-7-yl)propyl)-2,2,2-trifluoroacetamide] | – |
| – | 27.4 nM | CCOC(=O)NCC(C)(C)C(c1ccccc1)c1ccn2c(-c3ccccc3)ncc2c1 (stereo not shown) [Example 3, Ethyl 2,2-dimethyl-3-phenyl-3-(3-phenylH-imidazo[1,5-a]pyridin-7-yl)propylcarbamate] | – |
| – | 13 nM | CC(C)(C(=O)Nc1nccs1)C(c1ccccc1)c1ccc2cncn2c1 (stereo not shown) [Example 4, 3-(H-Imidazo[1,5-a]pyridin-6-yl)-2,2-dimethyl-3-phenyl-N-(thiazol-2-yl)propanamide] | – |
| 34.1 nM | – | CC(C)(C(=O)Nc1nccs1)C(c1ccccc1)c1ccc2c(-c3ccc(F)cc3)ncn2c1 (stereo not shown) [Example 5, 3-(1-(4-Fluorophenyl)H-imidazo[1,5-a]pyridin-6-yl)-2,2-dimethyl-3-phenyl-N-(thiazol-2-yl)propanamide] | 71.08% |
| – | 30.2 nM | CC(C)(C(=O)Nc1nccs1)C(c1ccccc1)c1ccc2c(Br)ncn2c1 (stereo not shown) [Example 6, 3-(1-BromoH-imidazo[1,5-a]pyridin-6-yl)-2,2-dimethyl-3-phenyl-N-(thiazol-2-yl)propanamide] | – |
| – | 17 nM | CC(C)(C(=O)Nc1nccs1)C(c1ccccc1)c1ccc2c(-c3cccc(C#N)c3)ncn2c1 (stereo not shown) [Example 7, 3-(1-(3-Cyanophenyl)H-imidazo[1,5-a]pyridin-6-yl)-2,2-dimethyl-3-phenyl-N-(thiazol-2-yl)propanamide] | – |
| – | 169 nM | CC(C)(C(=O)Nc1nccs1)C(c1ccccc1)c1ccc2nncn2c1 (stereo not shown) [Example 8, 3-([1,2,4]-Triazolo[4,3-a]pyridin-6-yl)-2,2-dimethyl-3-phenyl-N-(thiazol-2-yl)propanamide] | – |
| 10.1 nM | – | CC(C)(C(=O)Nc1nccs1)C(c1ccccc1)c1ccn2c(-c3ccccc3)ncc2c1 (stereo not shown) [Example 9] | 67.35% |
| – | 7.3 nM | CC(C)(C(=O)NC1CC1)C(c1ccccc1)c1ccn2c(-c3ccccc3)ncc2c1 (stereo not shown) [Example 10] | – |
| – | 27.1 nM | CC(C)(C(=O)Nc1nncs1)C(c1ccccc1)c1ccn2cncc2c1 (stereo not shown) [Example 11] | – |
| – | 17.7 nM | CC(C)(C(=O)Nc1nccs1)C(c1ccccc1)c1ccn2cncc2c1 (stereo not shown) [Example 12] | – |
| – | 19.5 nM | CC(C)(C(=O)Nc1nncs1)C(c1ccccc1)c1ccc2cncn2c1 (stereo not shown) [Example 13] | – |
| 43.6 nM | – | CC(C)(C(=O)Nc1nncs1)C(c1ccccc1)c1ccc2c(-c3ccc(F)cc3)ncn2c1 (stereo not shown) [Example 14] | 55.80% |
| – | 22.6 nM | CC(C)(C(=O)Nc1nncs1)C(c1ccccc1)c1ccc2c(-c3cccc(C#N)c3)ncn2c1 (stereo not shown) [Example 15] | – |
| – | 26.2 nM | CC(C)(C(=O)Nc1nccs1)C(c1ccccc1)c1ccc2c(-c3ccc(C#N)cc3)ncn2c1 (stereo not shown) [Example 16] | – |
| 13 nM | – | CC(C)(C(=O)Nc1nccs1)C(c1ccccc1)c1ccc2c(-c3ccc(F)cc3F)ncn2c1 (stereo not shown) [Example 18] | 55.81% |
| 16 nM | – | CC(C)(C(=O)Nc1nncs1)C(c1ccccc1)c1ccc2c(-c3ccc(F)cc3F)ncn2c1 (stereo not shown) [Example 19] | 45.65% |
| – | 65.9 nM | CC(C)(C(=O)Nc1nccs1)C(c1ccccc1)c1ccc2c(-c3ccc(F)c(Cl)c3)ncn2c1 (stereo not shown) [Example 20] | – |
| – | 46.6 nM | CC(C)(C(=O)Nc1nncs1)C(c1ccccc1)c1ccc2c(-c3ccc(F)c(Cl)c3)ncn2c1 (stereo not shown) [Example 21] | – |
| – | 12.2 nM | CC(C)(C(=O)Nc1nncs1)C(c1ccccc1)c1ccc2c(-c3cccc(CO)c3)ncn2c1 (stereo not shown) [Example 22] | – |
| – | 36 nM | Cc1cscc1-c1ncn2cc(C(c3ccccc3)C(C)(C)C(=O)Nc3nncs3)ccc12 (stereo not shown) [Example 23] | – |
| – | 327 nM | CC(C)(C(=O)Nc1nncs1)C(c1ccccc1)c1ccc2nncn2c1 (stereo not shown) [Example 24] | – |
| – | 2360 nM | Cc1nnc2ccc(C(c3ccccc3)C(C)(C)C(=O)Nc3nccs3)cn12 (stereo not shown) [Example 25] | – |
| – | 5450 nM | Cc1nnc2ccc(C(c3ccccc3)C(C)(C)C(=O)Nc3nncs3)cn12 (stereo not shown) [Example 26] | – |
